Test results from patent US12398154B2, “Azaquinazoline pan-KRas inhibitors” (Mirati Therapeutics, Inc., priority 2020, dated 2025).
One block for each compound: values may come before it.

Columns and labels:
Assay in all cases: biochemical
KRas G12A = KRas G12A (Homo sapiens, UniProt P01116, G12A);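 note: binding to KRas measured by TR-FRET displacement after one hour at room temperature, IC50 from a four-parameter fit of percent-of-control values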
Description: (§1) The ability of a compound to bind to KRas was measured using a TR-FRET displacement assay. […] After a 60-minute incubation at room temperature, the reaction was measured using a BMG LABTECH CLARIO star Plus via TR-FRET. […] The POC values were fit to a 4-parameter IC50 equation and the IC50 value reported.

KRas WT = KRas WT (Homo sapiens, UniProt P01116);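 note: binding to KRas read as TR-FRET displacement after a one-hour room-temperature incubation, IC50 derived from percent-of-control values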
KRas WT, sequence (P01116 1-169 isoform P01116-2): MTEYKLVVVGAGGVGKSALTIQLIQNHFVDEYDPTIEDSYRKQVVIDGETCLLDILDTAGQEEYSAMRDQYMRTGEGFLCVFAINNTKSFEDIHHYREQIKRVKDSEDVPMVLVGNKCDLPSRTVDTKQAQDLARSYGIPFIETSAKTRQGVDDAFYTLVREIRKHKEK
Description: as §1

KRas G12C = KRas G12C (Homo sapiens, UniProt P01116, G12C);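 note: binding to KRas assessed by TR-FRET displacement after one hour incubation at room temperature, potency fitted from percent-of-control values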
KRas G12C, sequence (P01116 1-169 isoform P01116-2 G12C): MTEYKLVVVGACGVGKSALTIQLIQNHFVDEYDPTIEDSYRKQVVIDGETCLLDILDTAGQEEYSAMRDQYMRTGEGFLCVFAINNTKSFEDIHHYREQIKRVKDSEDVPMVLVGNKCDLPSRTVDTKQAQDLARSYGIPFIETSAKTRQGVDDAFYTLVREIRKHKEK
Description: as §1

KRas G12D = KRas G12D (Homo sapiens, UniProt P01116, G12D);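 note: TR-FRET displacement binding assay on KRas, read after a one-hour incubation at room temperature, IC50 fitted from percent-of-control values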
KRas G12D, sequence (P01116 1-169 isoform P01116-2 G12D): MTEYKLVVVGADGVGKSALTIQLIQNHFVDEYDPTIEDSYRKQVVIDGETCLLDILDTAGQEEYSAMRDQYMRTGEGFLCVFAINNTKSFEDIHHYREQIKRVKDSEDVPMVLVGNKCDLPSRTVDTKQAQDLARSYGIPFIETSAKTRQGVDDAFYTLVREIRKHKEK
Description: as §1

KRas G12S = KRas G12S (Homo sapiens, UniProt P01116, G12S);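 note: TR-FRET displacement binding to KRas, read after one hour incubation at room temperature, IC50 from four-parameter fit of percent of control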
KRas G12S, sequence (P01116 1-169 isoform P01116-2 G12S): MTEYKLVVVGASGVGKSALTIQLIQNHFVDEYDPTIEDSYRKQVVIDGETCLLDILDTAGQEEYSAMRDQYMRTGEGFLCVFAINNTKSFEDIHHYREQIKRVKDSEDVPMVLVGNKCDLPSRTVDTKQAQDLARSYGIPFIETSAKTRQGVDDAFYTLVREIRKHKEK
Description: as §1

KRas G12R = KRas G12R (Homo sapiens, UniProt P01116, G12R);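 note: TR-FRET displacement assay of compound binding to KRas, read after one hour at room temperature, potency from a four-parameter fit of percent-of-control values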
KRas G12R, sequence (P01116 1-169 isoform P01116-2 G12R): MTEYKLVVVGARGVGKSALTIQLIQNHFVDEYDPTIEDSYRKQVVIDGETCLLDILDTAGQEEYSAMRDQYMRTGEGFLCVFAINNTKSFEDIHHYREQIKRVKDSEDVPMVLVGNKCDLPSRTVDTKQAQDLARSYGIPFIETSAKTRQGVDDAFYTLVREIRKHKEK
Description: as §1

KRas G12V = KRas G12V (Homo sapiens, UniProt P01116, G12V);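 note: KRas binding measured by TR-FRET displacement at room temperature, IC50 fitted from percent of control values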
KRas G12V, sequence (P01116 1-169 isoform P01116-2 G12V): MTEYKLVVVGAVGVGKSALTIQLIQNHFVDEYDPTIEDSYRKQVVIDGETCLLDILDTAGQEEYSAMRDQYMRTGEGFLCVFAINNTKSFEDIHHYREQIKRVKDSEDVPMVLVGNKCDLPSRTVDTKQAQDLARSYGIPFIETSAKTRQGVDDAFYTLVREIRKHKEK
Description: as §1

KRas G12A, sequence (P01116 1-169 isoform P01116-2 G12A): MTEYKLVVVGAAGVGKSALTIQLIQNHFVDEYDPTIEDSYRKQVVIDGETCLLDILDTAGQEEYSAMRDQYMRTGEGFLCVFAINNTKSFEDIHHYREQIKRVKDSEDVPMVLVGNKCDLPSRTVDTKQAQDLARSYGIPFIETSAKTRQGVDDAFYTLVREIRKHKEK

Structure (SMILES): CCc1cccc2cccc(-c3ncc4c(N5CCCC(c6nc[nH]n6)C5)nc(OCC56CCCN5CCC6)nc4c3F)c12 (stereo not drawn) [Example 295, 4-(3-(1H-1,2,4-triazol-3-yl)piperidin-1-yl)-7-(8-ethylnaphthalen-1-yl)-8-fluoro-2-((hexahydro-1H-pyrrolizin-7a-yl)methoxy)pyrido[4,3-d]pyrimidine]
IC50 (KRas G12A): 1800 nM
IC50 (KRas WT): 2850 nM
IC50 (KRas G12C): 1900 nM
IC50 (KRas G12D): 2450 nM
IC50 (KRas G12S): 2380 nM
IC50 (KRas G12R): 593 nM
IC50 (KRas G12V): 948 nM

Structure (SMILES): CCc1c(F)ccc2cc(O)cc(-c3ncc4c(N5CCC[C@@](C)(O)C5)nc(C(=O)NC(C)CN(C)C)nc4c3F)c12 (stereo partly drawn) [Example 312, N-(1-(dimethylamino)propan-2-yl)-7-(8-ethyl-7-fluoro-3-hydroxynaphthalen-1-yl)-8-fluoro-4-((R)-3-hydroxy-3-methylpiperidin-1-yl)pyrido[4,3-d]pyrimidine-2-carboxamide]
IC50 (KRas G12A): 156 nM
IC50 (KRas WT): 202 nM
IC50 (KRas G12C): 212 nM
IC50 (KRas G12D): 388 nM
IC50 (KRas G12S): 172 nM
IC50 (KRas G12R): 203 nM
IC50 (KRas G12V): 254 nM

Structure (SMILES): Cc1ccc2[nH]ncc2c1-c1ncc2c(N3CCCC(C)(O)C3)nc(OCC34CCCN3CCC4)nc2c1F (stereo not drawn) [Example 430, 1-(8-fluoro-2-((hexahydro-1H-pyrrolizin-7a-yl)methoxy)-7-(5-methyl-1H-indazol-4-yl)pyrido[4,3-d]pyrimidin-4-yl)-3-methylpiperidin-3-ol]
IC50 (KRas G12A): 6820 nM
IC50 (KRas WT): 8050 nM
IC50 (KRas G12C): 7830 nM
IC50 (KRas G12D): 6450 nM
IC50 (KRas G12S): 7720 nM
IC50 (KRas G12R): 8770 nM
IC50 (KRas G12V): 4760 nM

Structure (SMILES): Cc1cc(-c2ncc3c(N4CCCC(C)(O)C4)nc(OCC45CCCN4CCC5)nc3c2F)c2cn[nH]c2c1 (stereo not drawn) [Example 431, 1-(8-fluoro-7-(6-methyl-1H-indazol-4-yl)-2-((tetrahydro-1H-pyrrolizin-7a(5H)-yl)methoxy)pyrido[4,3-d]pyrimidin-4-yl)-3-methylpiperidin-3-ol]
IC50 (KRas G12A): 19600 nM
IC50 (KRas WT): 19700 nM
IC50 (KRas G12C): 17900 nM
IC50 (KRas G12D): 9620 nM
IC50 (KRas G12S): 19700 nM
IC50 (KRas G12R): 34400 nM
IC50 (KRas G12V): 15900 nM

Structure (SMILES): Cc1ccc(O)cc1-c1ncc2c(N3CCCC(C)(O)C3)nc(OCC34CCCN3CCC4)nc2c1F (stereo not drawn) [Example 432, 1-(8-fluoro-2-((hexahydro-1H-pyrrolizin-7a-yl)methoxy)-7-(5-hydroxy-2-methylphenyl)pyrido[4,3-d]pyrimidin-4-yl)-3-methylpiperidin-3-ol]
IC50 (KRas G12A): 2270 nM
IC50 (KRas WT): 2480 nM
IC50 (KRas G12C): 2410 nM
IC50 (KRas G12D): 1140 nM
IC50 (KRas G12S): 2410 nM
IC50 (KRas G12R): 3040 nM
IC50 (KRas G12V): 1930 nM

Structure (SMILES): N#CCc1cccc2cccc(-c3ncc4c(N5CCCC6(CC(=O)N6)C5)nc(OCC56CCCN5CCC6)nc4c3F)c12 (stereo not drawn) [Example 434, 2-(8-(8-fluoro-2-((hexahydro-1H-pyrrolizin-7a-yl)methoxy)-4-(2-oxo-1,6-diazaspiro[3.5]nonan-6-yl)pyrido[4,3-d]pyrimidin-7-yl)naphthalen-1-yl)acetonitrile]
IC50 (KRas G12A): 5620 nM
IC50 (KRas WT): 5130 nM
IC50 (KRas G12C): 3480 nM
IC50 (KRas G12D): 2200 nM
IC50 (KRas G12S): 3520 nM
IC50 (KRas G12R): 4510 nM
IC50 (KRas G12V): 3210 nM

Now those with a lower IC50 (KRas G12A), led by results:

IC50 (KRas G12A): 5 nM
IC50 (KRas WT): 6 nM
IC50 (KRas G12C): 6 nM
IC50 (KRas G12D): 10 nM
IC50 (KRas G12S): 6 nM
IC50 (KRas G12R): 5 nM
IC50 (KRas G12V): 4 nM
Structure (SMILES): CCc1cccc2cccc(-c3ncc4c(N5CCCC6(C5)NC(=O)NC6=O)nc(OCC56CCCN5CCC6)nc4c3F)c12 (stereo not drawn) [Example 293, 7-(7-(8-ethylnaphthalen-1-yl)-8-fluoro-2-((hexahydro-1H-pyrrolizin-7a-yl)methoxy)pyrido[4,3-d]pyrimidin-4-yl)-1,3,7-triazaspiro[4.5]decane-2,4-dione]

IC50 (KRas G12A): 13 nM
IC50 (KRas WT): 14 nM
IC50 (KRas G12C): 13 nM
IC50 (KRas G12D): 9 nM
IC50 (KRas G12S): 12 nM
IC50 (KRas G12R): 15 nM
IC50 (KRas G12V): 9 nM
Structure (SMILES): CCc1cccc2cccc(-c3ncc4c(N5CCCC6(CNC(=O)N6)C5)nc(OCC56CCCN5CCC6)nc4c3F)c12 (stereo not drawn) [Example 294, 7-(7-(8-ethylnaphthalen-1-yl)-8-fluoro-2-((hexahydro-1H-pyrrolizin-7a-yl)methoxy)pyrido[4,3-d]pyrimidin-4-yl)-1,3,7-triazaspiro[4.5]decan-2-one]

IC50 (KRas G12A): 128 nM
IC50 (KRas WT): 106 nM
IC50 (KRas G12C): 96 nM
IC50 (KRas G12D): 124 nM
IC50 (KRas G12S): 113 nM
IC50 (KRas G12R): 125 nM
IC50 (KRas G12V): 130 nM
Structure (SMILES): C#Cc1c(F)ccc2cc(O)cc(-c3ncc4c(N5CCCC(O)C5)nc(OCCN(C)C)nc4c3F)c12 (stereo not drawn) [Example 387, 1-(2-(2-(dimethylamino)ethoxy)-7-(8-ethynyl-7-fluoro-3-hydroxynaphthalen-1-yl)-8-fluoropyrido[4,3-d]pyrimidin-4-yl)piperidin-3-ol]
